Assays:
[1] = ABTS*+ method, in vitro antioxidant capacity for lipophilic compounds; assay type: biochemical; conditions: for 0.1 μg of each compound
Excerpt: Based on the preceding results, the inventors decided to evaluate the in vitro antioxidant capacity of the synthesized analogues, using an antioxidant capacity measurement assay valid for lipophilic compounds, according to the ABTS*^+ method (Samaniego et al. 2007. Analytica Chimica Acta 593: 103-107). This method is based on forming the ABTS*^+ radical cation by means of oxidation with ammonium persulfate of the ABTS reagent [2,2′-azino-bis(3-ethylbenzothiazoline-6-sulfonic acid], which can be colorimetrically determined. In this assay, the compounds with antioxidant capacity suppress the oxidation of the radical in a concentration-dependent manner. A standard curve with increasing concentrations of trolox (hydrosoluble vitamin E analogue) is used to quantify antioxidant capacity, such that the results are indicated as a measurement of trolox equivalents (TE). The results obtained for analogues NPS0158 and NPS0159 are 174±13 μM TE and 165±44 μM TE, respectively, for 0.1 μg of each compound, so they show high in vitro antioxidant capacity.

[2] = tested on: SK-N-MC human neuroblastoma culture cells; assay: ROS measurement (H2DCFDA, normalized by LDH) in cells treated with XXO; assay type: cell-based
Method: Based on the preceding results, the inventors decided to evaluate the antioxidant capacity of the analogues in a cell model. The ROS measurement assay was performed on SK-N-MC human neuroblastoma culture cells, maintained as detailed in Example 2, subjected to aggression with xanthine/xanthine oxidase (XXO). The ROS measurement is taken by means of adding a permeable non-fluorescent probe in live cells (2′,7′-dichlorodihydrofluorescein diacetate, H2DCFDA; Biotium) which is oxidized by the action of ROS, generating 2′,7′-dichlorofluorescein (DCF) which can be detected in a fluorometer at 485 nm of excitation and 538 nm of emission. The fluorescence results were normalized by cell viability, measured by means of lactate dehydrogenase (LDH) activity, using the Roche Cytotoxicity Detection Kit (LDH). The results obtained with the analogues on the production of ROS are shown in FIG. 29 as the percentage of ROS corrected by LDH with respect to treatment with XXO of each analogue in a dose-response curve. A known ROS reduction control compound (C+) was used. * indicates the significant difference with respect to treatment with XXO according to the Student's t test (p<0.05).

[3] = tested on: SK-N-MC human neuroblastoma culture cells; assay: Camptothecin-induced apoptosis (DNA fragmentation, flow cytometry) in SK-N-MC cells; assay type: cell-based; conditions: CPT
Method: Based on the preceding results, the researchers decided to analyze the antiapoptotic effect of compounds NPS0155 and NPS0156. The assays were performed on two SK-N-MC human neuroblastoma culture cell lines stably transfected with constructs expressing the amyloid precursor protein (APP) gene encoding for the isoform primarily expressed in the brain, containing 695 amino acids cloned into the expression vector pcDNA3.1 (Invitrogen). One of the lines expresses the wild-type APP (APPwt) gene and the other line expresses the gene APP with the Swedish mutation (APPswe) which is a double mutation in exon 16 of the gene and produces a G to T transversion yielding the change of amino acid Lys595Asn and another A to C transversion causing the Met596Leu change, said mutation being related to the senile or hereditary forms of Alzheimer's disease. The cells were maintained as the parent cells SK-N-MC, as detailed in Example 2, using geneticin at 400 μg/ml as a selection antibiotic. To determine the effect of compounds NPS0155 and NPS0156 on apoptosis (programmed cell death), DNA fragmentation was analyzed by means of flow cytometry, produced by treatment with camptothecin (CPT) inhibiting the topoisomerase I enzyme, which impedes DNA duplication and triggers apoptotic cell death. The two cell lines, not exceeding 10 passages, were seeded on 12-well microtite plate treated for adherent cells with a cell density of 4×10^5 cells/well. After 24 hours of cell incubation at 37° C. and 5% CO2, the pre-treatment of the cells with 4 and 10 μg/mL of NPS0155 or of NPS0156 for 24 hours was performed; they were subsequently treated with 50 μM CPT for 6 hours. After treatment, the cells were collected together with their culture medium and centrifuged at 300×g for 5 minutes. The medium was removed, the cells were washed with PBS solution and were fixed for 2 minutes with 500 μL of 70% ethanol at −20° C. Once they were fixed, they were centrifuged at 400×g for 5 minutes, washed with PBS and labeled with 0.05 mg/mL of propidium iodide, diluted in cycle buffer (0.1% citrate sodium, 0.3% Nonidet P-40 and 0.02 mg/mL RNAse), and were incubated for 1 hour at 37° C. They were maintained at 4° C. for 18 hours and after this time, they were analyzed by flow cytometry, measuring propidium iodide fluorescence as DNA content distribution.
Continuing with the study, the researchers decided to analyze the antiapoptotic effect of the synthesized analogues by analyzing cellular DNA fragmentation by means of flow cytometry. The cellular fragmentation measurement assay was performed on SK-N-MC human neuroblastoma culture cells, maintained as detailed in Example 2, and subjected to an aggression with camptothecin (CPT), following the same approach as the one described in Example 8. […]

[4] = in vitro; conditions: PAMPA; for Papp at 4 h / percentage of permeability: pig; for percentage of permeability: 4 h
Method: A mixture of lipids derived from pig brain, with a phospholipid composition very similar to the composition forming the human BBB, and referred to as PBL (Porcine Polar Brain Lipid, Avanti Polar Lipids Inc) which is prepared in microtiter plates with a MAIPNTR10 filter (Millipore), with a PVDF membrane and pore size of […], was used to mimic the blood-brain barrier. […] The percentage of barrier crossing and the effective permeability (Pe) were calculated based on the absorbance data obtained. The following formula was applied to calculate the Pe: […]

[5] = tested on: SK-N-MC human neuroblastoma culture cells; assay: XXO-induced cell death in real time (RTCA cell index); assay type: cell-based; conditions: 20 hours post-treatment
Method: These cells, not exceeding 15 passages, were seeded on E-plate 16 specific for a real time assay with the RTCA system (Real-Time Cell Analyzer, […], Roche) with a cell density of 5×10^4 cells/well. After 24 hours of cell incubation at 37° C. and 5% CO2, the cell treatments for the control conditions (culture medium); XXO (10 μM xanthine/60 mU/mL xanthine oxidase); XXO plus […] or […] at 10, 40, 100, 400, 1000 or 4000 ng/ml, were performed. The cells were incubated (at 37° C. and 5% CO2) with these treatments for 72 hours, was monitored every 10 minutes. The values that are obtained are arbitrary units indicated by the cell index, calculated from the impedance data, which is a electrical parameter that establishes the relationship between the voltage and current intensity of the adhered cells which is used as a measurement of cell viability. […] The assay was performed following the same method as the one described in Example 6, testing the analogues at 40, 100, 400 or 1000 ng/ml in the presence of XXO. The cells were incubated (at 37° C. and 5% CO2) with these treatments for 72 hours, and was monitored every 10 minutes. The values that are obtained are arbitrary units indicated by cell index, calculated from the impedance data and used as a measurement of cell viability.

[6] = tested on: SK-N-MC cells expressing APP with the Swedish mutation (APPswe); assay: Camptothecin-induced apoptosis (DNA fragmentation, flow cytometry) in APPswe cells; assay type: cell-based, human; conditions: pre-treatment 24 hours at 4 and 10 μg/ml, then 50 μM CPT for 6 hours
Method: (§1) Based on the preceding results, the researchers decided to analyze the antiapoptotic effect of compounds NPS0155 and NPS0156. The assays were performed on two SK-N-MC human neuroblastoma culture cell lines stably transfected with constructs expressing the amyloid precursor protein (APP) gene encoding for the isoform primarily expressed in the brain, containing 695 amino acids cloned into the expression vector pcDNA3.1 (Invitrogen). One of the lines expresses the wild-type APP (APPwt) gene and the other line expresses the gene APP with the Swedish mutation (APPswe) which is a double mutation in exon 16 of the gene and produces a G to T transversion yielding the change of amino acid Lys595Asn and another A to C transversion causing the Met596Leu change, said mutation being related to the senile or hereditary forms of Alzheimer's disease. […] To determine the effect of compounds NPS0155 and NPS0156 on apoptosis (programmed cell death), DNA fragmentation was analyzed by means of flow cytometry, produced by treatment with camptothecin (CPT) inhibiting the topoisomerase I enzyme, which impedes DNA duplication and triggers apoptotic cell death. […] They were maintained at 4° C. for 18 hours and after this time, they were analyzed by flow cytometry, measuring propidium iodide fluorescence as DNA content distribution.

[7] = TEAC in vitro antioxidant capacity assay; assay type: biochemical
Excerpt: Based on the preceding results, the inventors decided to evaluate in vitro antioxidant capacity of the extract, for which the TEAC assay ([…]) was used. This method is based on the formation of the ferryl-myoglobin radical produced by reacting metmyoglobin with hydrogen peroxide, followed by the oxidation of the ABTS [2,2′-azino-bis(3-ethylbenzthiazoline-6-sulfonic acid] reagent by ferryl-myoglobin, which produces the radical cation ABTS*+, which can be colorimetrically determined. In this assay, the compounds with antioxidant capacity suppress the production of the radical in a concentration-dependent manner. A standard curve with increasing concentrations of trolox (6-hydroxy-2,5,7,8-tetramethylchroman-2-carboxylic acid, hydrosoluble vitamin E analogue) is used to quantify antioxidant capacity, such that the results are indicated as a measurement of trolox equivalents (TE).
Based on the preceding results, the researchers decided to analyze the in vitro antioxidant capacity of compounds NPS0155 and NPS0156 by means of the TEAC assay, described in Example 2. A standard curve with increasing concentrations of trolox (hydrosoluble vitamin E analogue) was used to quantify antioxidant capacity, such that the results are indicated as a measurement of trolox equivalents (TE).

[8] = tested on: SK-N-MC cells expressing wild-type APP (APPwt); assay: Camptothecin-induced apoptosis (DNA fragmentation, flow cytometry) in APPwt cells; assay type: cell-based, human; conditions: pre-treatment 24 hours at 4 and 10 μg/ml, then 50 μM CPT for 6 hours
Method: as §1

BBB permeability (conclusion) [4]	Papp at 4 h [4] [×10⁻⁶ cm/s]	percentage of permeability [4] [%]	Structure (SMILES)	antioxidant capacity, trolox equivalents (TE) [1] [μM TE]	maximum ROS reduction (ROS corrected by LDH, with respect to XXO) ([2]; at 100 ng/ml) [%]	maximum protection against apoptosis ([3]; at 10 μg/ml) [%]	maximum protection against death caused by XXO ([5]; at 1000 ng/ml) [%]	maximum protection against death caused by XXO ([5]; at 100 ng/ml) [%]	protection against apoptosis caused by CPT [6]	antioxidant capacity, trolox equivalents (TE) [7]	protection against apoptosis caused by CPT [8]	other results
moderate	5.19	13	Cc1ccc(/C=C(NC=O)/C(=C/c2ccc(C)cc2)NC=O)cc1 [NPS0158, (1Z,2Z)-2-(formylamino)-1-(4-methylbenzylidene)-3-(4-methylphenyl)prop-2-enylformamide]	174±13	34	28	27	–	–	–	–	–
high	14.7	29	Cc1ccc(/C=C(NC=O)/C(=C/c2ccc(C)c(C)c2)NC=O)cc1C [NPS0161, (1Z,2Z)-1-(3,4-dimethylbenzylidene)-3-(3,4-dimethylphenyl)-2-(formylamino)-prop-2-enylformamide]	–	–	–	–	26	–	–	–	maximum ROS reduction (ROS corrected by LDH, with respect to XXO) ([2]; at 400 ng/ml): 45%; maximum protection against apoptosis ([3]; at 0.1 μg/ml): 35%
–	–	–	O=CNC(=C\c1ccc2c(c1)OCO2)/C(=C/c1ccc2c(c1)OCO2)NC=O [NPS0159, (1Z,2Z)-3-(1,3-benzodioxol-5-yl)-1-(1,3-benzodioxol-5-ylmethylen)-2-(formylamino)prop-2-enylformamide]	165±44	27	23	35	–	–	–	–	–
–	–	–	O=CNC(=C\c1ccc(O)cc1)/C(=C/c1ccc(O)cc1)NC=O [NPS0156, (1Z,3Z)-1,4-Di(4-hydroxyphenyl)-2,3-diformamido-1,3-butadiene]	–	–	–	–	69	Protection by NPS0156 was observed at the two tested doses	104±29 μM TE/μg of compound	Protection by NPS0156 was observed at the two tested doses	–
–	–	–	CCOc1ccc(/C=C(NC=O)/C(=C/c2ccc(OCC)cc2)NC=O)cc1 [NPS0160, (1Z,2Z)-2-(formylamino)-1-(4-ethoxybenzylidene)-3-(4-ethoxyphenyl)prop-2-enylformamide]	–	31	–	–	23	–	–	–	maximum protection against apoptosis ([3]; at 1 μg/ml): 30%
–	–	–	O=CNC(=C\c1ccc(O)cc1)/C(=C/c1ccc(O)c(O)c1)NC=O [NPS0155, (1Z,3Z)-1-(3,4-dihydroxyphenyl)-4-(4-hydroxyphenyl)-2,3-diformamido-1,3-butadiene]	–	–	–	–	27	Protection by NPS0155 was observed at the two tested doses	81±19 μM TE/μg of compound	Protection by NPS0155 was observed at the two tested doses	–

Reference: patent US9453004B2, “Formylated xanthocillin analogues as neuroprotective agents” (NEURON BIOPHARMA, S.A., priority 2012, dated 2016)
